Data taken from patent US5932217A, “Peptides which inhibit adhesion between leukocytes and endothelial cells” (priority 1994, dated 1999).

Legend:
[1] = system: rats inoculated intracisternally with Haemophilus influenzae type b lipooligosaccharide; test: Rat meningitis model (H. influenzae LOS); assay type: in vivo; details: for Leukocytosis: Experiment #3, 600 nmol i.v., CSF 4 hours after LOS
Experimental: The experiments were performed according to established protocols (Wispelway et al., 1988, J. Clin. Invest., 82: 1339-1346). Purified Haemophilus influenzae type b strain DL42 lipooligosaccharide (LOS) was prepared for inoculation by sonication for 30 minutes, dilution to the desired concentration (20 ng/50 μl) in normal saline or PBS, and sonication for an additional 15 to 30 minutes just prior to use.
Briefly, anesthetized female Wistar rats were placed under a micromanipulator and inoculated intracisternally with a 25 gauge needle. After removal of 50 μl of CSF (without visible blood contamination), rats were inoculated intracisternally with 50 μl (20 ng) of LOS using a 1 ml syringe with a 25 gauge needle. Ten to fifteen minutes after inoculation with LOS, the rats were treated by intravenous administration of the test substance: a solution of an FHA peptide in PBS, a solution of a control peptide in PBS, or an equal volume of PBS alone.
Three hours after LOS inoculation, 5 μCi of ^125 I-radiolabelled albumin in 50 μl normal saline was administered intravenously. One hour later, CSF was collected via intracisternal puncture and blood samples were collected via intracardiac puncture. CSF leukocytosis was determined by manually counting white blood cells using a hemacytometer, and blood-brain barrier permeability was determined as the percent of radioactivity in whole blood that was present in the CSF. Blood samples were obtained immediately prior to inoculation, immediately prior to treatment, and at 4 hours post-inoculation for determination of peripheral white blood cell concentrations.

[2] = 50% rabbit plasma at 37° C.
Experimental: To determine the stability of the FHA II peptide, the unmodified or the acetylated-amidated peptide were incubated in 50% rabbit plasma at 37° C.

[3] = system: Recognition of C3bi by 12.1F9; test: Peptide inhibition of recognition of C3bi by 12.1F9; assay type: binding

Substance: Ac-ETKEVDG-NH2 [Acetyl/Amide-FHA II]
- BBB permeability ([1]; Experiment #3, 600 nmol): 6.00 ± 5.14%
- Leukocytosis [1]: approximately 10,000 cells/ml
- Leukocytosis ([1]; listed as ac/am FHA II): 10,500 ± 8523 cells/ml
- neutropenia ([1]; peripheral white blood cells): No neutropenia was observed
- Inhibition of blood-brain barrier permeability ([1]; rat, in vivo): not observed
- concentration over time in plasma [2]: remained unchanged over 48 hours

Substance: Filamentous hemagglutinin [native FHA]
- block of binding of 12.1F9 to C3bi [3]: blocked binding almost completely
- Adherence index ([3]; peptides 50 μg/ml, normalized to a control value of 100): 16 ± 16
